Results: paper PMC8948292, “Combining PEGylated mito-atovaquone with MCT and Krebs cycle redox inhibitors as a potential strategy to abrogate tumor cell proliferation” (Scientific Reports, 2022)
Read-outs that look alike come from different tables or passages of the source.

How the values were obtained:
[1] = test system: MiaPaCa-2 cells; test: Cell proliferation (cell confluence), IncuCyte Live-Cell Analysis System; format: cell-based, human; conditions: MiaPaCa-2 cells
Protocol: (§1) The following cell lines were obtained from the American Type Culture Collection (Manassas, VA), where they were regularly authenticated: MiaPaCa-2 (ATCC Cat# CRL-1420, human pancreatic cancer cells), U87MG (ATCC Cat# HTB-14, human brain cancer cells), A549 (ATCC Cat# CCL-185, lung cancer cells), and HCT-116 (ATCC Cat# CCL-247, colon cancer cells). All cell lines were grown at 37 °C in 5% carbon dioxide. MiaPaCa-2 cells were maintained in Dulbecco's Modified Eagle Medium (Thermo Fisher Scientific, Waltham, MA; Cat# 11965) supplemented with 10% fetal bovine serum. U87MG, A549, and HCT-116 cells were maintained in RPMI 1640 medium (Thermo Fisher Scientific, Cat# 11875), supplemented with 10% fetal bovine serum. All cells were stored in liquid nitrogen and used within 20 passages after thawing.
(§2) The IncuCyte Live-Cell Analysis System was used to monitor cell proliferation[3],[33],[67]. As shown in previous publications[3],[67], this imaging system is probe-free and noninvasive, and enables continuous monitoring of cell confluence over several days. The increase in the percentage of cell confluence was used as a surrogate marker of cell proliferation. In a 96-well plate, cells were plated at 1,000 cells per well in triplicates and left to adhere overnight. Cells were then treated with Mito-PEG-ATO analogs, and the cell confluency was recorded over several days in the IncuCyte Live-Cell Analysis System.

[2] = test system: A549 cells; test: as above; format: cell-based; conditions: Homo sapiens; A549 cells; control ~90% confluence; read-out: IC50, inhibition of A549 cell proliferation
Protocol: as §1, §2
(§3) Figure S7. Effects of Mito-PEG-ATO analogs on the proliferation of human lung cancer (A549) cells and human colon cancer (HCT-116) cells. (A) The effects of Mito-PEG5-ATO and ATO on the proliferation of A549 (left) or HCT-116 (right) cells were monitored in the IncuCyte Live-Cell Analysis system. The IncuCyte analyzer provides real-time updates on cell confluence, based on segmentation of high definition-phase contrast images. Representative cell images were shown as a segmentation mask illustrated in brown when control cells reached 90% confluence (vertical solid black line). (B) The IC50 values for A549 (left) or HCT-116 (right) cells were determined at the point at which control cells reached ~90% confluence (vertical solid black line). Relative cell confluence (control is taken as 100%) is plotted against concentration. Dashed lines represent the fitting curves used to determine the IC50 values as indicated. Data shown are the mean±SD.

[3] = test system: HCT-116 cells; test: as above; format: cell-based; conditions: Homo sapiens; HCT-116 cells; control ~90% confluence; read-out: IC50, inhibition of HCT-116 cell proliferation
Protocol: as §1, §2, §3

[4] = test system: mitochondrial respiration (OCR) in intact MiaPaCa-2 cells; test: Intact cell mitochondrial respiration (basal OCR), Seahorse XF-96; format: cell-based, human; conditions: 24 h treatment; for OCR (pmol/min/µg protein): intact MiaPaCa-2 cells, baseline OCR, mean, n=4
Protocol: (§4) Mitochondrial oxygen consumption was measured using the Seahorse XF-96 Extracellular Flux Analyzer (Agilent, North Billerica, MA)[3],[33],[67],[68]. To determine the intact cell mitochondrial function of MiaPaCa-2 cells in response to Mito-PEG-ATO analogs, we used the bioenergetic function assay previously described[2],[3]. […] From these measurements, indices of mitochondrial function were determined as previously described[2],[3]. For mitochondrial complex activities assays, after cells were treated with Mito-PEG-ATO analogs for 24 h, the OCR-based assessment of mitochondrial complex activities was carried out on acutely permeabilized cells in the presence of different mitochondrial substrates, i.e., pyruvate/malate for complex I and duroquinol for complex III[3],[32],[34],[69]. Rotenone, malonate, and antimycin A (Sigma-Aldrich, St. Louis, MO) were used as specific inhibitors of mitochondrial complexes I, II, and III, respectively. Briefly, cells that were intact after treatments were immediately permeabilized using the Seahorse XF Plasma Membrane Permeabilizer (Agilent). The mitochondrial complex I-induced OCR was assayed in mannitol and sucrose buffer[69] containing 10 mM pyruvate and 1.5 mM malate (substrates for complex I) and 10 mM malonate (which inhibits complex II activities). The mitochondrial complex III-driven OCR was assayed in a mannitol and sucrose buffer containing 0.5 mM duroquinol (substrate for complex III) as well as 1 µM rotenone and 10 mM malonate (which inhibit both complex I and II activities). The IC50 values were determined as previously reported.

[5] = target: mitochondrial complex I (MiaPaCa-2 cells) (Homo sapiens, UniProt O75251+O75306+P03886); test: Complex I-dependent oxygen consumption in permeabilized cells, Seahorse XF-96; format: cell-based; conditions: 24 h, with Mito-PEG5-ATO
mitochondrial complex I (MiaPaCa-2 cells), sequence (O75306 34-463): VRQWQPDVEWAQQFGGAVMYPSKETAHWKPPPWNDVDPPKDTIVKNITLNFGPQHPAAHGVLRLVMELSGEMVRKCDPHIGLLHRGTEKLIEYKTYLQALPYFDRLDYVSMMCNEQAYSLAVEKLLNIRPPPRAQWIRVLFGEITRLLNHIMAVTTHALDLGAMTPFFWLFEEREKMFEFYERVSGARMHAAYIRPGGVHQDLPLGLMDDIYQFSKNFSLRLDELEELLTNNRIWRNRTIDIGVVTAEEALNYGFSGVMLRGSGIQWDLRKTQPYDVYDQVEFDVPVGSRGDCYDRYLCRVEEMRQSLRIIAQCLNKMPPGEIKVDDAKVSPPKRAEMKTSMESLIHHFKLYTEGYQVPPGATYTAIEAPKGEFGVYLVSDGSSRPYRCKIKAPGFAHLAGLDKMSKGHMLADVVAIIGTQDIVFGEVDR
mitochondrial complex I (MiaPaCa-2 cells), sequence (O75251 39-213): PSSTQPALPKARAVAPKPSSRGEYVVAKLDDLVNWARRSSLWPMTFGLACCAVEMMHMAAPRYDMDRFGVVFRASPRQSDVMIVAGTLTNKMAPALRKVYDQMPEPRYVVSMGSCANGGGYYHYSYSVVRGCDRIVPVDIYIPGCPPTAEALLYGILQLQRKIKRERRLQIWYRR
mitochondrial complex I (MiaPaCa-2 cells), sequence (P03886 whole entry): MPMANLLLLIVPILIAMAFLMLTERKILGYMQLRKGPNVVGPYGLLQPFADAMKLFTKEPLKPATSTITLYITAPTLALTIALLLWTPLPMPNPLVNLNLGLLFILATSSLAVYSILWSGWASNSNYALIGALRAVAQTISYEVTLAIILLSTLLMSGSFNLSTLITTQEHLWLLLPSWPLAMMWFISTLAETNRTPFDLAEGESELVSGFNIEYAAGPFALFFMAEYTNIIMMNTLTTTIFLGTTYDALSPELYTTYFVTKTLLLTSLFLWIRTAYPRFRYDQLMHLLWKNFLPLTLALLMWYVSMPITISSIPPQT
Protocol: as §4, with “The mitochondrial complex III-driven OCR was assayed in a mannitol and sucrose buffer containing 0.5 mM duroquinol (substrate for complex III) as well as 1 µM rotenone and 10 mM malonate (which inhibit both complex I and II activities).” left out

[6] = target: mitochondrial complex III (MiaPaCa-2 cells) (Homo sapiens, UniProt P00156); test: Complex III-dependent oxygen consumption in permeabilized cells, Seahorse XF-96; format: cell-based; conditions: MiaPaCa-2 cells; with Mito-PEG5-ATO
mitochondrial complex III (MiaPaCa-2 cells), sequence (P00156 whole entry): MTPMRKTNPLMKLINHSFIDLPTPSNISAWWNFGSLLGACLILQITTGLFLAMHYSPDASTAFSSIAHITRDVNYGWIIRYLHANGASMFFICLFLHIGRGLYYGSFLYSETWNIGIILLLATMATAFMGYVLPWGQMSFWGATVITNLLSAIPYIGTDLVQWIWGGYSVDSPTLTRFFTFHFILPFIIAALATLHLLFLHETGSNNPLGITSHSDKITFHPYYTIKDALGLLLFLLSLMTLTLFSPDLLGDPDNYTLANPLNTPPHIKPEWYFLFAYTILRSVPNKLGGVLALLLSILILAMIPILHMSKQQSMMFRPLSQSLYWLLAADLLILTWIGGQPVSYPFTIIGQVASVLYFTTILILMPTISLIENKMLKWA
mitochondrial complex III (MiaPaCa-2 cells), sequence (P47985 whole entry partner): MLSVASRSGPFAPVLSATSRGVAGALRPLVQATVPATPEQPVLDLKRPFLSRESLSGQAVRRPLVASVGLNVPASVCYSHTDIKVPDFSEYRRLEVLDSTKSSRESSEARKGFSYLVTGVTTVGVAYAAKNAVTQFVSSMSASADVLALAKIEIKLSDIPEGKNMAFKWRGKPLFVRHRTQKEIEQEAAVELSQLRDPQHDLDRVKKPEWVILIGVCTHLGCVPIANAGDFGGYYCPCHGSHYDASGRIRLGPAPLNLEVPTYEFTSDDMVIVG
Protocol: as §4

Structure (SMILES) | IC50 ([1]; Homo sapiens, MIA PaCa-2, determined when control cells reached ~90% confluence, read-out: IC50, inhibition of cell proliferation) | IC50 [2] | IC50 [3] | OCR (pmol/min/µg protein) ([4]; 1 µM) | OCR (pmol/min/µg protein) ([4]; 3 µM) | OCR (pmol/min/µg protein) ([4]; 10 µM) | OCR (pmol/min/µg protein) ([4]; 15 µM) | OCR (pmol/min/µg protein) ([4]; 17.5 µM) | OCR (pmol/min/µg protein) ([4]; 20 µM) | OCR (pmol/min/µg protein) ([4]; 22.5 µM) | OCR (pmol/min/µg protein) ([4]; 25 µM) | OCR (pmol/min/µg protein) ([4]; 30 µM) | OCR (pmol/min/µg protein) ([4]; 40 µM) | OCR (pmol/min/µg protein) ([4]; 50 µM) | IC50 ([4]; Homo sapiens, MIA PaCa-2, MiaPaCa-2 cells, read-out: IC50, inhibition of basal OCR in intact cells) | Inhibition of cell proliferation in combination with Mito-PEG5-ATO (combination index) ([1]; combined with Mito-PEG5-ATO) | % changes of IC50 with vs without Mito-PEG5-ATO ([1]; heat map Fig. 7d) | IC50 ([1]; inhibitor alone, control ~90% confluence, read-out: IC50 (cell proliferation) without Mito-PEG5-ATO) | Effect on the decrease in complex I-induced oxygen consumption induced by Mito-PEG5-ATO [5] | Effect on the decrease in complex III-induced oxygen consumption induced by Mito-PEG5-ATO [6]
O=C1C(O)=C([C@H]2CC[C@H](c3ccc(Cl)cc3)CC2)C(=O)c2ccccc21 [ATO, atovaquone] | 19 µM | 24 µM | 20 µM | 11.69 pmol/min/µg protein | 11.27 pmol/min/µg protein | 4.45 pmol/min/µg protein | 3.40 pmol/min/µg protein | 2.08 pmol/min/µg protein | 1.80 pmol/min/µg protein | 2.05 pmol/min/µg protein | 2.46 pmol/min/µg protein | 1.99 pmol/min/µg protein | 2.11 pmol/min/µg protein | 0.93 pmol/min/µg protein | 6.5 µM | – | – | – | – | –
Cc1cccc(COc2ccccc2CN(CC[C@H](N)C(=O)O)Cc2ccccc2OCc2cccc(C)c2)c1 [V-9302, reference compound] | – | – | – | – | – | – | – | – | – | – | – | – | – | – | – | synergistically inhibited | 71.1% | 8.6 µM | Neither AZD-3965 nor V-9302 significantly affected | Neither AZD-3965 nor V-9302 significantly affected
